{"source": "patent US20240091220A1", "about": "“METHODS OF MODULATING NEURONAL AND OLIGODENDROCYTE SURVIVAL” (priority 2021, published 2024)", "key": {"[1]": {"system": "reactive ACM-mediated toxicity", "details": "previous data, Liddelow et al. 2017; cited from earlier work"}, "[2]": {"system": "oligodendrocytes", "details": "dose curve, live/dead analysis 24 hours after treatment", "experimental": "Oligodendrocytes: Oligodendrocyte lineage cells were purified by immunopanning from P6 Sprague-Dawley forebrains and cultured as previously described (Dugas and Emery, “Purification of Oligodendrocyte Precursor Cells from Rat Cortices by Immunopanning,” Cold Spring Harbor Protocols 2013(8):745-758 (2013), which is hereby incorporated by reference in its entirety). Cortices were blunt dissected and enzymatically digested using papain at 37° C. and 10% CO2. Tissue was then mechanically triturated with a 5 mL serological pipette at room temperature to generate a single-cell suspension. […]\nAll experiments began with identically plated cells that were randomly chosen for treatment, ensuring identical starting cell numbers for control and experimental conditions. […] Identical acquisition and illumination conditions were used within each experiment and cells were counted in ImageJ using custom macros, which involved background subtraction and thresholding following by particle counting. […]"}, "[3]": {"system": "oligodendrocytes", "assay": "Oligodendrocyte live/dead survival with ethoxyquin, with or without reactive ACM", "format": "cell-based, rat", "details": "for Slope of simple linear regression of oligodendrocyte survival on ethoxyquin dose: increasing doses of ethoxyquin in DMSO", "procedure": "For collection of astrocyte conditioned media, plates of astrocyte cultures from identical preps were randomly chosen as control or reactive. Reactive astrocyte cultures were treated for 24 hours with IL1α (3 ng/ml, Sigma, 13901), TNF (30 ng/ml, Cell Signaling Technology, 8902SF), and C1q (400 ng/ml, MyBioSource, MBS143105). Control and reactive astrocyte conditioned media (ACM) was collected and spun at ˜2000 g for 5 minutes to remove any dead cells or cell debris. ACM was then concentrated in a Vivaspin 30 kDa centrifugation tubes (Cytiva 28932361) to ˜10× concentration for subsequent experiments. The protein concentration of ACM was determined by Bradford Assay (Sigma-B6916) and used to ensure identical concentrations of reactive versus control ACM were used for further experiments. ACM was presented at a dose of 50 μg/ml in all experiments not otherwise denoted with an alternative concentration.\nZ1 (Zeiss) or on an Incucyte ZOOM (Essen Bioscience)."}}, "note": "Entries after “also recorded” stand apart in the source; their conditions may differ.", "data": [{"smiles": "CCOC(=O)c1ccc(NC2CCCCC2)c(N)c1", "note": "[Ferrostatin-1]", "values": [{"measurement": "Effect on reactive ACM-mediated (astrocyte) toxicity", "setting": "[1]", "value": "does not affect; also recorded: has no effect"}]}, {"smiles": "CCCCCCCCCCCCCCCCCCCC(=O)OC[C@H](COP(=O)([O-])OCC[N+](C)(C)C)OC(=O)CCCCCCCCCCCCCCCCCCC", "note": "[phosphatidylcholines (20:0)]", "values": [{"measurement": "Toxicity to oligodendrocytes (survival)", "setting": "[2]", "value": "toxic to oligodendrocytes in a dose-dependent fashion"}]}, {"smiles": "CCOc1ccc2c(c1)C(C)=CC(C)(C)N2", "note": "[ethoxyquin]", "values": [{"measurement": "Slope of simple linear regression of oligodendrocyte survival on ethoxyquin dose", "setting": "[3]; with 30 μg/ml reactive ACM", "value": "−0.000001788"}, {"measurement": "Slope of simple linear regression of oligodendrocyte survival on ethoxyquin dose", "setting": "[3]; without reactive ACM", "value": "−0.0000025"}, {"measurement": "Effect on toxicity of reactive ACM to oligodendrocytes", "setting": "[3]; with reactive ACM", "value": "had no effect; also recorded: did not impact the toxicity of reactive ACM"}, {"measurement": "Effect on oligodendrocyte survival when treated in isolation", "setting": "[3]; without reactive ACM", "value": "did not impact cell survival"}]}]}
